In patent publication US20230146675A1, “PYRIMIDO[5,4-d]PYRIMIDINE DERIVATIVES AS ENT INHIBITORS FOR THE TREATMENT OF CANCERS, AND COMBINATION THEREOF WITH ADENOSINE RECEPTOR ANTAGONISTS” (ITEOS BELGIUM SA, priority 2020, published 2023):

Columns and labels:
[1] = biological target: T1, Human phosphodiesterase-7A1 (Homo sapiens, UniProt Q13946); experiment: PDE7A1 (h) assay; assay type: biochemical
T1 construct: host or cells: Sf9 cells
Description: The test compound (compound 72), reference compound or water (control) were added to a buffer containing 40 mM Tris/HCl (pH 7.4), 8 mM MgCl2 and 1.7 mM EGTA/NaOH, 1.8 μM cAMP and 1 μCi [3H]cAMP. Thereafter, the reaction was initiated by addition of the enzyme (about 2 ng) and the mixture was incubated for 15 min at 22° C. For basal control measurements, the enzyme was omitted from the reaction mixture. Following incubation SPA beads were added. After 30 min at 22° C. under shaking, the amount of [3H]5′AMP was quantified with a scintillation counter (MicroBeta, Perkin Elmer). The results were expressed as a percent inhibition of the control enzyme activity. The standard inhibitory reference compound was EHNA, which was tested in each experiment at several concentrations to obtain an inhibition curve from which its IC50 value was calculated. • Human phosphodiesterase-7A1 quantified by measuring the formation of 5′AMP from cAMP using a human recombinant enzyme expressed in Sf9 cells
(§1) The test compound (compound 72), reference compound or water (control) were added to a buffer containing 40 mM Tris/HCl (pH 7.4) and 8 mM MgCl2, 63 nM cAMP and 0.035 μCi [3H]cAMP. […] After 30 min at 22° C. under shaking, the amount of [3H]5′AMP was quantified with a scintillation counter (MicroBeta, Perkin Elmer). The results were expressed as a percent inhibition of the control enzyme activity. […]

human ENT1 [2] = biological target: T2, human ENT1 (Homo sapiens, UniProt Q99808); experiment: ENT1 binding assay (competition with Sahenta-DY647 on JAR cells); design: JAR cells expressing ENT1 were bought from ATCC; host or cells: JAR cells; details: binned IC50
T2 sequence (Q99808 1-456): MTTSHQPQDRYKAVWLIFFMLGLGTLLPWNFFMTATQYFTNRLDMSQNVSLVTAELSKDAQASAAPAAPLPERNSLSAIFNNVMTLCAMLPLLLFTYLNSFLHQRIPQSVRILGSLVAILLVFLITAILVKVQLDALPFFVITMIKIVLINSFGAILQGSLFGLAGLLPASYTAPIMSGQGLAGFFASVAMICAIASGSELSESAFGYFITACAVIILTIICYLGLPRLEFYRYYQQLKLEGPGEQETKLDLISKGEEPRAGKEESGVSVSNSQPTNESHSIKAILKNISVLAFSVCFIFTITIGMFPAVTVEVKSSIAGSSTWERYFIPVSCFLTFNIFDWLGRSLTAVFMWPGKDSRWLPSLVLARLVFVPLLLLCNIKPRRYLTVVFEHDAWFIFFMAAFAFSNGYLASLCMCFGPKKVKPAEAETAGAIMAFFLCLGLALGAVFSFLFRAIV
Outline: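 JAR cells were incubated with test compounds and the fluorescent ligand Sahenta-DY647 in competition. Plates were washed twice by centrifugation (4 min, 400 rcf, 4 °C). Binding potency was derived from the final fluorescence.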

[3] = biological target: T3, Human phosphodiesterase-3B (Homo sapiens, UniProt Q13370); experiment: PDE3B (h) assay; assay type: biochemical
T3 construct: host or cells: Sf9 cells
T3 sequence (Q13370 whole entry): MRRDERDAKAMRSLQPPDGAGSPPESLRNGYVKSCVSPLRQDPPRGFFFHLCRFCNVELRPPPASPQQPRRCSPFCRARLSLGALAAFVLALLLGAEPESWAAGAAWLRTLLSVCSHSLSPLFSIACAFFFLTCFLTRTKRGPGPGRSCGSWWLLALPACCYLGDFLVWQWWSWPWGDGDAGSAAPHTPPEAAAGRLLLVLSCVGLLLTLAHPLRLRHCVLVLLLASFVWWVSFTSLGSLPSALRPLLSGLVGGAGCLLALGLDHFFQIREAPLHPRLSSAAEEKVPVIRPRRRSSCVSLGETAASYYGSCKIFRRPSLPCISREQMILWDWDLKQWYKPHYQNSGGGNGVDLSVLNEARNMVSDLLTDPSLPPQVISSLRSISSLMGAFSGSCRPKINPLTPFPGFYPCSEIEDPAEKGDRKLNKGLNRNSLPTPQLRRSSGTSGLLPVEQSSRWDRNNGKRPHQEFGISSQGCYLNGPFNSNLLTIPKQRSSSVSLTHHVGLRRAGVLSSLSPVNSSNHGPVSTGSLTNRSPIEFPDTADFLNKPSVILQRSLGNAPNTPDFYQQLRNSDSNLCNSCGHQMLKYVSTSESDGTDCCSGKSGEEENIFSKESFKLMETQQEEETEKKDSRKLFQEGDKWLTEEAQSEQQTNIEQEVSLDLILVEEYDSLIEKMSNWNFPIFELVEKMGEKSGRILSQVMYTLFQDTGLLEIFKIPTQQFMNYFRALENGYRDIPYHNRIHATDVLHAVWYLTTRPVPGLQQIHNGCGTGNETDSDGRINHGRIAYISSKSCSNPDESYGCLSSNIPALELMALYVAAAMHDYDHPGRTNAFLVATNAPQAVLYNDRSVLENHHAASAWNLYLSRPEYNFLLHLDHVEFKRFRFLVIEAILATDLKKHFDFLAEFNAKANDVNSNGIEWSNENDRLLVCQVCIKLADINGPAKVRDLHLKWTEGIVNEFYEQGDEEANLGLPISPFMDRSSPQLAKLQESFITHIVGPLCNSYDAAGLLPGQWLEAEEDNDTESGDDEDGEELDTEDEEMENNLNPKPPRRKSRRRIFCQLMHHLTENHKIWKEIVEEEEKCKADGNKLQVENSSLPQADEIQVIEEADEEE
Description: The test compound (compound 72), reference compound or water (control) were added to a buffer containing 40 mM Tris/HCl (pH 7.8), 3 mM MgCl2, 1.4 mM DTT, 0.21% BSA, 200 mM NH4Cl, 2 μM cGMP and 0.05 μCi [3H]cGMP. Thereafter, the reaction was initiated by addition of the enzyme (final amount depending on the efficiency of the isolation) and the mixture was incubated for 60 min at 22° C. For basal control measurements, the enzyme was omitted from the reaction mixture. Following incubation SPA beads were added. After 20 min at 22° C. under shaking, the amount of [3H]5′GMP was quantified with a scintillation counter (Topcount, Packard). The results were expressed as a percent inhibition of the control enzyme activity. The standard inhibitory reference compound was zaprinast, which was tested in each experiment at several concentrations to obtain an inhibition curve from which its IC50 value was calculated. • Human phosphodiesterase-3B quantified by measuring the formation of 5′AMP from cAMP using a human recombinant enzyme expressed in Sf9 cells
as §1, with “450” for “63”, “0.25” for “0.035”, “Elmer).” for “Elmer). The results were expressed as a percent inhibition of the control enzyme activity.”

human ENT1 [4] = biological target: T2, human ENT1; experiment: Uridine transport inhibition assay (3H-uridine uptake, MDCKII-ENT1-LV cells); assay type: cell-based; details: 3H-uridine (1 μM), 1 min at 25° C.
From the text: Purpose. The aim of this study was to determine the potency of equilibrative nucleoside transporter 1 (ENT1) inhibitors by measuring ENT1-mediated transport is the cellular uptake assay. The human ENT1 transporter can be stably expressed in Madin-Darby Canine Kidney II (MDCKII) cells via transduction. Uridine is efficiently transported by ENT1 and is used as probe in the assay as 3H-uridine. The interaction is detected as the modulation of the initial rate of 3H-uridine transport by human ENT1 into MDCKII-ENT1-LV cells stably expressing ENT1 uptake transporter.

T1 sequence (Q13946 whole entry): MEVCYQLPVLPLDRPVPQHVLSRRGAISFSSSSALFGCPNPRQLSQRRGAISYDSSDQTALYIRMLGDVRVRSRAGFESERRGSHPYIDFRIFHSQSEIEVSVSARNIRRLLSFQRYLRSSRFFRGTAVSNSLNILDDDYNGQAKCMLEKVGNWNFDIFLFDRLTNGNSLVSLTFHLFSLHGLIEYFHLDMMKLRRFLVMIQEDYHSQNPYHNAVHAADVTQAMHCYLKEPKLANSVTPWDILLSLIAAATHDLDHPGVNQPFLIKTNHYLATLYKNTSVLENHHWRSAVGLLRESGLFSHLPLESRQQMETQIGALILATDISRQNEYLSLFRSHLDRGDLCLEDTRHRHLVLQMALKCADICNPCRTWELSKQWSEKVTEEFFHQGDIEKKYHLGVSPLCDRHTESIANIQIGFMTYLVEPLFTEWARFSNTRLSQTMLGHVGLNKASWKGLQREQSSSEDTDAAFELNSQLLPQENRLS

Q: How did the IC50 [1] turn out when `COCCN(CCOC)c1nc(N2CCN(C)C(=O)C2)c2nc(N(CCOC)CCOC)nc(N3CCC(OC)CC3)c2n1` [Compound 72, 4-(2,6-bis(bis(2-methoxyethyl)amino)-8-(4-methoxypiperidin-1-yl)pyrimido[5,4-d]pyrimidin-4-yl)-1-methylpiperazin-2-one] was run?
A: The IC50 was > 10 µM.

Q: What about the IC50 (human ENT1 [2]) of the same molecule?
A: Its IC50 is < 0.1 µM.

Q: And the IC50 [3]?
A: Its IC50 is > 10 µM.

Q: What about the IC50 (human ENT1 [4]) of the same molecule?
A: Its IC50 is < 0.1 µM.
